Measurements as given in patent US7683179B2, “Lercanidipine salts” (Recordati Ireland Limited, priority 2004, dated 2010).
Entries after “also recorded” stand apart in the source; their conditions may differ. Where a name gives a salt, the structure may show the parent alone. Read-outs that look alike come from different tables or passages of the source.

Experiments:
Assay type in all cases: physicochemical
[1] = Solubility by UV-Visible spectroscopy in aqueous 0.1 M HCl (pH 1) at 22° C.; conditions: for solubility at 24 h: 22 °C, pH 1, simulated gastric fluid, thermodynamic from solid; for solubility: pH 1
Description: The solubility of crystalline lercanidipine besylate, napadisylate and hydrochloride and amorphous lercanidipine besylate was evaluated by UV-Visible spectroscopy in aqueous 0.1 M HCl (pH 1) at 22° C. Suspensions of approximately 0.3 mg/ml of the respective compounds were prepared in an aqueous 0.1 M HCl and equilibrated by shaking for 24 hours. Following equilibration, the samples were filtered (0.1 μm filter) and the concentration was determined photometrically using Perkin Elmer Lambda 16 (Überlingen, Germany). Reference measurements were performed with 20% acetonitrile as a co-solvent.

[2] = Stability of crystalline salts (statement, no method)
[3] = Hygroscopicity by DVS analysis (water absorption analyzer); conditions: humidity cycling between 0 and 95% RH at 25° C.
Description: The hygroscopicity of both amorphous and crystalline lercanidipine salts was determined by DVS analysis using a water absorption analyzer (Surface Measurement System Ltd., Marion, Buckinghamshire, UK). The analysis were carried out according to the following conditions: 10-15 mg of sample were placed on a quartz or platinum holder, the holder was placed in-turn on a microbalance, and the sample underwent humidity cycling between 0 and 95% relative humidity (RH) at 25° C. (50-95-0-95-0-50% at a rate of 5% RH/hr).

solubility at 24 h ([1]; Solubility) [µg/mL]	solubility at 24 h ([1]; solubility in 0.1 N HCl) [µg/mL]	stability [2]	solubility compared with other salt forms [1]	solubility in 0.1 M HCl at 22° C. [1]	solubility [1] [µg/mL]	Hygroscopicity [3]	solubility in 0.1 M HCl at 22° C. ([1]; 0.1 M HCl, 22° C.)	Compound	solubility compared with other salt forms ([1]; 0.1 M / 0.1 N HCl, comparison in words)
10	~10							COC(=O)C1=C(C)NC(C)=C(C(=O)OC(C)(C)CN(C)CCC(c2ccccc2)c2ccccc2)C1c1cccc([N+](=O)[O-])c1 (stereo not shown) [Crystalline hydrochloride, lercanidipine hydrochloride, reference compound]	
		good stability	lower solubility than the amorphous salt	about 3.5 mg/L	3.5	hygroscopic		COC(=O)C1=C(C)NC(C)=C(C(=O)OC(C)(C)CN(C)CCC(c2ccccc2)c2ccccc2)C1c1cccc([N+](=O)[O-])c1.COC(=O)C1=C(C)NC(C)=C(C(=O)OC(C)(C)CN(C)CCC(c2ccccc2)c2ccccc2)C1c1cccc([N+](=O)[O-])c1.O=S(=O)(O)c1cccc2c(S(=O)(=O)O)cccc12 (stereo not shown) [Crystalline napadisylate, lercanidipine napadisylate]	
					155	non-hygroscopic		lercanidipine besylate [Amorphous besylate]	
		good stability				non-hygroscopic	about 87 mg/L	lercanidipine besylate [Crystalline besylate]	lower solubility than the amorphous salt; also recorded: substantially more soluble than either crystalline hydrochloride or napadisylate
